Assay results taken from PubChem BioAssay (NCI).
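Method: 48-hour compound exposure of cells in 96-well plates, five concentrations, linear interpolation of endpoints. The concentration for 50% growth inhibition is given as GI50. TGI is the concentration that stops growth completely.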

Assays:
Assay in all cases: DTP human tumour cell line panel, 48 h
NCI/ADR-RES ovarian = system: NCI/ADR-RES ovarian
BT-549 breast = system: BT-549 breast
OVCAR-5 ovarian = system: OVCAR-5 ovarian
SK-OV-3 ovarian = system: SK-OV-3 ovarian
RPMI-8226 leukemia = system: RPMI-8226 leukemia
RXF 393 renal = system: RXF 393 renal
SK-MEL-5 melanoma = system: SK-MEL-5 melanoma
SNB-19 CNS = system: SNB-19 CNS
K-562 leukemia = system: K-562 leukemia
PC-3 prostate = system: PC-3 prostate

SMILES | TGI (NCI/ADR-RES ovarian) | TGI (BT-549 breast) | TGI (OVCAR-5 ovarian) | TGI (SK-OV-3 ovarian) | TGI (RPMI-8226 leukemia) | TGI (RXF 393 renal) | TGI (SK-MEL-5 melanoma) | TGI (SNB-19 CNS) | TGI (K-562 leukemia) | TGI (PC-3 prostate) | GI50 (NCI/ADR-RES ovarian) | GI50 (SNB-19 CNS) | GI50 (K-562 leukemia) | GI50 (PC-3 prostate) | GI50 (BT-549 breast) | GI50 (OVCAR-5 ovarian) | GI50 (SK-OV-3 ovarian) | GI50 (SK-MEL-5 melanoma) | GI50 (RPMI-8226 leukemia) | GI50 (RXF 393 renal)
N#Cc1c2c(c(Nc3cccc(C(F)(F)F)c3)n3c1nc1ccccc13)CCC2 | > 100 µM | > 100 µM | > 100 µM | > 100 µM | > 100 µM | > 100 µM | > 100 µM | – | – | – | – | – | – | – | – | – | – | – | – | –
N/C(=N\S(=O)(=O)c1cccc2nsnc12)Nc1ccc(Cl)cc1 | > 100 µM | > 100 µM | > 100 µM | > 100 µM | > 100 µM | > 100 µM | 31.2 µM | > 100 µM | > 100 µM | 55 µM | – | – | – | – | – | – | – | – | – | –
CC(C)CCC[C@@H](C)[C@H]1CC[C@H]2[C@@H]3CC[C@H]4C[C@H](N)CC[C@]4(C)[C@H]3CC[C@]12C | 95.3 µM | 67.6 µM | 36.7 µM | 64.5 µM | > 100 µM | > 100 µM | 54.3 µM | 46.9 µM | > 100 µM | 20.2 µM | – | – | – | – | – | – | – | – | – | –
O=C1N(c2ccccc2)C2(c3ccccc3)CC3CCCC13S2 (centres undefined) | > 100 µM | > 100 µM | > 100 µM | > 100 µM | 98.8 µM | > 100 µM | > 100 µM | > 100 µM | > 100 µM | 90.3 µM | – | – | – | – | – | – | – | – | – | –
C=CCc1cc(-c2cc(CC=C)c(O)c(CNC)c2)cc(CNC)c1O | – | – | – | – | 50.6 µM | – | 29.7 µM | 26.1 µM | 27.3 µM | – | – | – | – | – | – | – | – | – | – | –
N#CC(c1nc2ccccc2s1)c1ncnc(Cl)c1[N+](=O)[O-] (centres undefined) | 44.3 µM | 56.3 µM | 91.7 µM | > 100 µM | > 100 µM | 89 µM | 30 µM | > 100 µM | – | – | – | – | – | – | – | – | – | – | – | –
O=S1(=O)C(c2ccccc2)C(N2CCCCC2)C1C1CC2c3ccccc3C1c1ccccc12 (centres undefined) | > 100 µM | > 100 µM | > 100 µM | > 100 µM | > 100 µM | > 100 µM | > 100 µM | > 100 µM | > 100 µM | > 100 µM | – | – | – | – | – | – | – | – | – | –
COc1cc(/C=N/n2c(Cc3ccc(Cl)cc3)n[nH]c2=O)cc(OC)c1OC | > 100 µM | > 100 µM | > 100 µM | > 100 µM | – | > 100 µM | – | > 100 µM | > 100 µM | > 100 µM | – | – | – | – | – | – | – | – | – | –
CC(=O)Nc1ccc(N=C2C(c3ccccc3)=C(SC3=C(c4ccccc4)C(=Nc4ccc(NC(C)=O)cc4)c4ccccc43)c3ccccc32)cc1 | 72.9 µM | 73.1 µM | > 100 µM | > 100 µM | 81.1 µM | 82.8 µM | 31.3 µM | > 100 µM | > 100 µM | > 100 µM | – | – | – | – | – | – | – | – | – | –
O=C1CS(=O)(=O)C(c2cccc(Oc3ccccc3)c2)N1c1cccc(Cl)c1 (centres undefined) | > 100 µM | 93.2 µM | > 100 µM | > 100 µM | – | 52.7 µM | 31.1 µM | > 100 µM | 52.1 µM | > 100 µM | – | – | – | – | – | – | – | – | – | –
O=c1cc(-c2ccc(O)cc2)n(C2CC2)c2ccccc12 | 38.8 µM | – | 19.4 µM | 42.6 µM | 9.05 µM | 8.42 µM | 18.5 µM | 50.1 µM | > 100 µM | 92.3 µM | – | – | – | – | – | – | – | – | – | –
CCN1C=C/C(=C\C=C/c2cc[n+](CC)c3ccccc23)c2ccccc21 | > 100 µM | 51.2 µM | 15.1 µM | 15.1 µM | 12 µM | 70.3 µM | 21.2 µM | 15.2 µM | – | 17.3 µM | – | – | – | – | – | – | – | – | – | –
c1ccc(C2CC(c3cccc(Nc4ccncc4)c3)=NN2c2ccccc2)cc1 (centres undefined) | 3.54 µM | 3.87 µM | 3.65 µM | 5.49 µM | – | – | 3.22 µM | 3 µM | 6.76 µM | 3.58 µM | 1.74 µM | 1.63 µM | 2.02 µM | 1.69 µM | 1.88 µM | 1.83 µM | 2.38 µM | 1.77 µM | – | –
Cc1ccc(NP(=O)(Oc2ccccc2)N(CCCl)CCCl)cc1 (centres undefined) | – | – | > 100 µM | > 100 µM | > 100 µM | – | > 100 µM | – | > 100 µM | – | – | – | – | – | – | – | – | – | – | –
O=C(C[C@H](NC(=O)OCc1ccccc1)C(=O)NC1Cc2ccccc2OC1=O)OCc1ccccc1 (some centres undefined) | > 100 µM | > 100 µM | > 100 µM | > 100 µM | > 100 µM | > 100 µM | > 100 µM | > 100 µM | 49.2 µM | 70.2 µM | – | – | – | – | – | – | – | – | – | –
CCCCCCCCCCCCCCCc1ccc(OCC(O)CO)cc1 (centres undefined) | – | – | > 100 µM | > 100 µM | 53.2 µM | 35.4 µM | > 100 µM | > 100 µM | > 100 µM | – | – | – | – | – | – | – | – | – | – | –
Cn1c(-c2cccs2)cc(-c2ccccc2)c1-c1cccs1 | > 100 µM | > 100 µM | > 100 µM | > 100 µM | > 100 µM | > 100 µM | > 100 µM | 47.5 µM | > 100 µM | > 100 µM | – | – | – | – | – | – | – | – | – | –
Nc1cc2c(nnn2C2OC(COCc3ccccc3)C(OCc3ccccc3)C2OCc2ccccc2)c(=O)[nH]1 (centres undefined) | > 100 µM | 90.3 µM | > 100 µM | > 100 µM | – | 39.5 µM | 19.9 µM | > 100 µM | 84.6 µM | > 100 µM | – | – | – | – | – | – | – | – | – | –
CN(C)c1nc(N(C)C)nc(N(C)CN(C)c2ccc(Cl)cc2)n1 | – | – | – | > 100 µM | – | > 100 µM | > 100 µM | > 100 µM | > 100 µM | – | – | – | – | – | – | – | – | – | – | –
CN(c1cc2ncc(=O)[nH]c2cc1NC(N)=NCc1ccc(Cl)cc1)C1CCCCC1 | 50 µM | 14.6 µM | 14.1 µM | 15.8 µM | 13.4 µM | 13 µM | 15.3 µM | – | 9.73 µM | 12.5 µM | 23.1 µM | – | 2.38 µM | 5.94 µM | 7.4 µM | 6.58 µM | 7.6 µM | 8.18 µM | 3.54 µM | 5.79 µM
